Laboratory results reported in PMC5595280, “Cytotoxicity and anti-tumor effects of new ruthenium complexes on triple negative breast cancer cells” (PLoS ONE, 2017).

Tests used:
MDA-MB-231 cells [1] = assay: Boyden chamber migration assay; type: cell-based, human; conditions: 5, 10 and 20 μM, 22 h
Method: Cell migration was also assessed in a chemotactic assay using 24 well Boyden chambers (BD Biosciences) as described earlier. MDA-MB-231 (0.5 x 10^5/350 μL) cells, incubated or not with complex (4) 5, 10 and 20 μM were seeded on the upper chamber in a DMEM incomplete medium (without FBS). In the lower chamber DMEM medium supplemented with 10% FBS was added. Cells were allowed to migrate for 22 h at 37°C and 5% CO2 in a humidified environment. Then, cells that remained in the upper chamber were removed using a cotton swab. Cells that migrated to the other side of the upper chamber membrane were fixed with methanol and stained with 1% toluidine blue. Migrated cells were quantified by manual counting and inhibition ratio was expressed as % of control.

HSA = HSA (Homo sapiens, UniProt P02768); assay: HSA tryptophan fluorescence quenching; type: binding
Method: For fluorescence measurements, the HSA concentration in Tris–HCl buffer was kept constant in all the samples, while the complex concentration was increased from 0.50 to 50 μM, and quenching of the emission intensity of the HSA tryptophan residues at 305 nm (excitation wavelength 270 nm) was monitored at different temperatures (25°C and 37°C). The experiments were carried out in triplicate and analysed using the classical Stern-Volmer equation. The binding constant (Kb) and number of complexes bound to HSA (n) were determined by plotting the double log graph of the fluorescence data using: log [(F0-F)/F] = log Kb + nlog[Q]. The thermodynamic parameter (ΔH) was calculated from equation: ln (K2/K1) = [(1/T1)-(1/T2)]ΔH/R, where K1 and K2 are the binding constants at temperatures T1 and T2, and R is the gas constant. Furthermore, the change in free energy (ΔG) and entropy (ΔS) were calculated from the following equation: ΔG = -RT lnK = ΔH − TΔS.
Human serum albumin (HSA) is the most abundant protein in the blood and cerebrospinal fluid and plays a fundamental role in the distribution of essential transition metal ions in the human body. Moreover, HSA is an important physiological transporter of the essential metal ions Cu^2+, and Zn^2+ in the bloodstream. […] The fluorescence spectrum is essentially that of tryptophan residue; contribution of tyrosine is relatively minor. In order to determine the protein binding affinity of complexes (1–4), tryptophan emission quenching experiments were carried out by adding the complexes in increasing concentration (0–50 μM) to HSA at two different temperatures and following the decrease in fluorescence intensities (Fig 6D). The results point out a good linearity at the two different temperatures. The binding constants, KSV, calculated from the Stern-Volmer equation are presented on Table 2.

MCF-10A cells = assay: MTT cell proliferation assay; type: cell-based, human; conditions: 24 h of incubation, read-out: IC50 ±SEM MCF-10A
Method: (§1) MDA-MB-231 human breast tumor cells and MCF7 human breast tumor cells, obtained from Rio de Janeiro Cell Bank, were maintained at 37°C in 5% CO2 in DMEM medium containing fetal bovine serum (FBS) 10% (Vitrocell). MCF-10A, a non-tumor breast cell line, obtained from Rio de Janeiro Cell Bank, was cultivated in DMEM/F12 medium containing horse serum (HS) 5%, EGF (0.02 mg/mL); hydrocortisone (0.05 mg/mL); cholera toxin (0.001 mg/mL) and insulin (0.01 mg/mL). Both media contained penicillin (100 UI/mL), streptomycin ([…]) and L-glutamine (2 mM).
(§2) Proliferation assays were performed as described earlier. Briefly, cells lines were prepared in a concentration of 1x10^4 cells/100 μL, in complete medium (with 10% FBS), and plated on sterile 96-well plates for 24 h. The culture medium was removed from the wells and a new one, supplemented with 10% FBS and containing different concentrations of (1) [Ru(SO4)(dppb)(bipy)] (2) [Ru(CO3)(dppb)(bipy)], (3), [Ru(C2O4)(dppb)(bipy)], or (4) [Ru(CH3CO2)(dppb)(bipy)]PF6, was added to the wells. Cells were incubated for 24 h under the same conditions as described above. Cell proliferation assay was performed in comparison with untreated control. After incubation, the culture medium of each well was removed and a solution containing MTT (1 mg/mL) was added (100 μL/well). The plates were then kept at 37°C for 4 h and the formed crystals were dissolved in DMSO. The absorbance was read on an ELISA plate reader at a wavelength of 540 nm. […] The selectivity index (SI) was calculated as the ratio IC50 (MCF-10A) / IC50 (MDA-MB-231).
(§3) Each experiment was repeated three times in triplicate and a standard error mean was calculated. Shapiro-Wilk’s test was used to verify data normality. As normal distribution was present, the results were compared statistically with a one-way or two-way analysis of variance (ANOVA). […] The data were analysed and IC50 calculations were made using Hill’s equation in the GraphPad Prism software (version 6.05).

MCF-7 cells = assay: MTT cell proliferation assay; type: cell-based, human; conditions: 24 h of incubation, read-out: IC50 ±SEM MCF-7
Method: as §1, §2, §3

MDA-MB-231 cells [2] = assay: MTT cell proliferation assay; type: cell-based, human; conditions: 24 h of incubation, read-out: IC50 ±SEM MDA-MB-231
Method: as §1, §2, §3

MDA-MB-231 cells [3] = assay: Wound healing migration assay; type: cell-based, human; conditions: 5, 10 and 20 μM, 24 and 48 h
Method: The effects of complex (4) on tumor cell migration was investigated by two methods, wound healing and transwell assays using Boyden chambers. For wound healing, MDA-MB-231 cells (2 x10^5/mL) were plated in 12-wells plates and incubated properly until the culture reached 100% of confluence. Afterwards, a straight scratch was made with a sterile pipette tip and cells were washed with culture medium to remove unbound cells and debris. Cells were incubated with complex (4) 5, 10 and 20 μM for 24 and 48 h. Cells were viewed using an inverted microscope (Nikon, T5100) at 40× total magnification and images were captured (Moticam, 1000-S camera) at 0 h, 24 h and 48 h. Closure area of migrating cells was measured using Image J software, and the percentage of wound closure was calculated, comparing time zero and 48 h, using a formula from Yue and co-workers.
% wound closure=(At=0h−At=Δh)/(At=0h)x (100)

Chain of HSA (P02768 25-609): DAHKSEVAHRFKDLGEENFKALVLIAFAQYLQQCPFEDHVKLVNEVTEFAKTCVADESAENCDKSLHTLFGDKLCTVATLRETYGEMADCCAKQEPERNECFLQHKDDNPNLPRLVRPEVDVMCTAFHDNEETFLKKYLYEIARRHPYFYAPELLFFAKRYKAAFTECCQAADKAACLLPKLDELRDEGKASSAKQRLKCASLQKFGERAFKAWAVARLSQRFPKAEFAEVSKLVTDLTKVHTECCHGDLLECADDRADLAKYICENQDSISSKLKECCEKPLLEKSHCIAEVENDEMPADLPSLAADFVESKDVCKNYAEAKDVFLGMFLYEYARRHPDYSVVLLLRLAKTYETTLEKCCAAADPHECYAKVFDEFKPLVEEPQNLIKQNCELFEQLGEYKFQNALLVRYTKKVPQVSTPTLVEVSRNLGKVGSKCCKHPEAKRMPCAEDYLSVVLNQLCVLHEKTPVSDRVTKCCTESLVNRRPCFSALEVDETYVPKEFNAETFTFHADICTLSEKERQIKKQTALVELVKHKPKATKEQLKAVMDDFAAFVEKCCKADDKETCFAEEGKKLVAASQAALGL

CC(=O)[O-].F[P-](F)(F)(F)(F)F.[Ru+2].c1ccc(-c2ccccn2)nc1.c1ccc(P(CCCCP(c2ccccc2)c2ccccc2)c2ccccc2)cc1 [Complex (4), [Ru(CH3CO2)(dppb)(bipy)]PF6]
effect on cell migration (Boyden chamber) (MDA-MB-231 cells [1]): inhibited MDA-MB-231 cell migration in a concentration dependent fashion
Kq (HSA) (HSA; T 298): 4.95e+13 M⁻¹ s⁻¹
Ksv (HSA) (HSA; T 298): 4.74 ± 0.70 x10^4 M^-1
n (number of binding sites, HSA) (HSA; T 298): 1.20
ΔS (HSA) (HSA; complex-HSA system): 110.13 J.mol^-1K
ΔH (HSA) (HSA; from binding constants at 298 and 310): 1.50 kJ/mol
IC50 (MCF-10A cells): 48.89 ± 0.09 µM
IC50 (MCF-7 cells): > 200 µM
IC50 (MDA-MB-231 cells [2]): 31.16 ± 0.04 µM
effect on cell migration (wound healing) (MDA-MB-231 cells [3]): inhibited MDA-MB-231 cell migration in a concentration dependent fashion
